Reference: patent US11629171B2, “Beta-hairpin peptidomimetics” (POLYPHOR AG, priority 2017, dated 2023)
In brackets after ≈: the same amount, converted by molar mass. Where a SMILES comes first, the peptide text is derived from it. Bridges are numbered along the chain shown (N, C = ends). Roman numbers before positions name the chains, in order. [ ]: non-standard residue; d: D form. Thr(ol) = C[C@@H](O)[C@H](N)CO; Tle = CC(C)(C)[C@H](N)C(=O)O; NMeV = CN[C@H](C(=O)O)C(C)C; Hiv = CC(C)[C@H](O)C(=O)O; dDab = NCC[C@@H](N)C(=O)O; hSer = N[C@@H](CCO)C(=O)O; Nle = CCCC[C@H](N)C(=O)O; Orn = NCCC[C@H](N)C(=O)O; Dab = NCC[C@H](N)C(=O)O; Dap = NC[C@H](N)C(=O)O

How the values were obtained:
Type in all cases: cell-based
[1] = tested on: Acinetobacter baumannii 872842; settings: 872842
In short: (§1)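 Peptides are tested in serial two-fold dilutions against about 10^6 CFU/mL in MH-II broth containing 0.002% P-80 (v/v, final). Plates incubate 18-20 h at 35° C, and the MIC is the lowest peptide level (μg/mL) showing no visible growth.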

[2] = tested on: Acinetobacter baumannii DSM 30008; settings: DSM 30008
In short: as §1

[3] = tested on: Enterobacter cloacae 848840; settings: 848840
In short: as §1

[4] = tested on: Escherichia coli 926415; settings: 926415
In short: as §1

[5] = tested on: Escherichia coli ATCC 25922; settings: ATCC 25922
In short: as §1

[6] = tested on: Klebsiella pneumoniae 968733; settings: 968733
In short: as §1

[7] = tested on: Klebsiella pneumoniae SSI #3010; settings: SSI #3010
In short: as §1

[8] = tested on: Pseudomonas aeruginosa ATCC 27853; settings: ATCC 27853
In short: as §1

[9] = tested on: human red blood cells (hRBC); assay: Hemolysis; settings: red cells of human, 1 h, 200
In short: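 hRBC washed 4× in PBS; 200 μg/mL peptide + 20% (v/v) hRBC, 1 h, 37° C, 300 rpm. Spin, supernatant ~7.5-fold diluted, OD540 blank corrected. % hemolysis = OD540 peptide / OD540 Triton X-100 × 100.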

| Structure (SMILES) | MIC [1] [µg/mL] | MIC [2] [µg/mL] | MIC [3] [µg/mL] | MIC [4] [µg/mL] | MIC [5] [µg/mL] | MIC [6] [µg/mL] | MIC [7] [µg/mL] | MIC [8] [µg/mL] | Hemolysis at 200 μg/mL [9] [%] |
| --- | --- | --- | --- | --- | --- | --- | --- | --- | --- |
| CC(C)C[C@@H]1NC(=O)[C@@H](CC(C)C)NC(=O)[C@H](CCN)NC(=O)[C@@H](NC(=O)[C@H](CCN)NC(=O)[C@@H](NC(=O)[C@H](CCN)NC(=O)CC[C@@H]2NC(=O)[C@@H](NC(=O)[C@H](Cc3ccc(O)cc3)NC(=O)[C@H](CCC(=O)O)NC(=O)[C@@H](O)C(C)C)CSSC[C@@H](C(=O)N[C@H](C(=O)N[C@@H](CCN)C(=O)N[C@H](CO)[C@@H](C)O)C(C)(C)C)NC(=O)[C@H](Cc3c[nH]c4ccccc34)NC(=O)[C@H]([C@@H](C)O)NC(=O)[C@@H](CCN)NC2=O)[C@@H](C)O)CCNC(=O)[C@H]([C@@H](C)O)NC(=O)[C@H](CCN)NC(=O)[C@H](CCN)NC1=O [Ex. 190] (I: H-[Hiv]EYCE[dDab]TWC[Tle][Dab][Thr(ol)] / II: [Dab]T[Dab][Dab][Dab][dL]L[Dab][Dab]T; disulfide I:4-I:9; amide I:5-II:N; lactam II:4-II:C) | 0.5 (≈ 0.205 µM) | 0.0625 (≈ 0.0256 µM) | 0.5 (≈ 0.205 µM) | 1 (≈ 0.409 µM) | 0.0625 (≈ 0.0256 µM) | 4 (≈ 1.64 µM) | 0.125 (≈ 0.0512 µM) | 0.25 (≈ 0.102 µM) | <1 |
| CC(C)C[C@@H]1NC(=O)[C@@H](Cc2ccccc2)NC(=O)[C@H](CCN)NC(=O)[C@@H](NC(=O)[C@H](CCN)NC(=O)[C@@H](NC(=O)[C@H](CCN)NC(=O)CC[C@@H]2NC(=O)[C@H](CCN)NC(=O)[C@H](Cc3ccc(O)cc3)NC(=O)[C@@H](NC(=O)[C@@H](O)C(C)C)CSSC[C@@H](C(=O)N[C@H](CO)[C@@H](C)O)NC(=O)[C@H](C(C)(C)C)NC(=O)[C@H](CO)NC(=O)[C@H](Cc3c[nH]c4ccccc34)NC(=O)[C@H](CCO)NC(=O)[C@@H](CCN)NC2=O)[C@@H](C)O)CCNC(=O)[C@H]([C@@H](C)O)NC(=O)[C@H](CCN)NC(=O)[C@H](CCN)NC1=O [Ex. 61] (I: H-[Hiv]CY[Dab]E[dDab][hSer]WS[Tle]C[Thr(ol)] / II: [Dab]T[Dab][Dab][Dab][dF]L[Dab][Dab]T; disulfide I:2-I:11; amide I:5-II:N; lactam II:4-II:C) | 0.125 (≈ 0.0513 µM) | 0.0625 (≈ 0.0257 µM) | 0.125 (≈ 0.0513 µM) | 0.25 (≈ 0.103 µM) | 0.125 (≈ 0.0513 µM) | 0.125 (≈ 0.0513 µM) | 0.0625 (≈ 0.0257 µM) | 0.125 (≈ 0.0513 µM) | 3 |
| CC(=O)N[C@H](C(=O)N[C@H]1CCNC(=O)C[C@@H](C(=O)N[C@@H](CO)C(N)=O)NC(=O)[C@H](C(C)(C)C)NC(=O)[C@H](CO)NC(=O)[C@H](Cc2c[nH]c3ccccc23)NC(=O)[C@H](CCN)NC(=O)[C@@H](CCN)NC(=O)[C@H](CCC(=O)N[C@@H](CCN)C(=O)N[C@H](C(=O)N[C@@H](CN)C(=O)N[C@H]2CCNC(=O)[C@H]([C@@H](C)O)NC(=O)[C@H](CCN)NC(=O)[C@H](CCN)NC(=O)[C@H](CC(C)C)NC(=O)[C@@H](CC(C)C)NC(=O)[C@H](CCN)NC2=O)[C@@H](C)O)NC(=O)[C@H](CO)NC(=O)[C@H](Cc2ccc(O)cc2)NC1=O)C(C)C [Ex. 265] (I: Ac-V[Dab]YSE[dDab][Dab]WS[Tle]DS-NH2 / II: [Dab]T[Dap][Dab][Dab][dL]L[Dab][Dab]T; lactam I:2-I:11, II:4-II:C; amide I:5-II:N) | 0.125 (≈ 0.052 µM) | 0.0625 (≈ 0.026 µM) | 0.5 (≈ 0.208 µM) | 0.125 (≈ 0.052 µM) | 0.0625 (≈ 0.026 µM) | 0.25 (≈ 0.104 µM) | 0.0625 (≈ 0.026 µM) | 0.125 (≈ 0.052 µM) | <1 |
| CC(=O)N[C@H](C(=O)N[C@H]1CCCNC(=O)[C@@H]([C@H](C)O)NC(=O)[C@H](C(C)(C)C)NC(=O)[C@H](CO)NC(=O)[C@H](Cc2c[nH]c3ccccc23)NC(=O)[C@H](CCO)NC(=O)[C@@H](CCN)NC(=O)[C@H](CCC(=O)N[C@@H](CCN)C(=O)N[C@H](C(=O)N[C@@H](CN)C(=O)N[C@H]2CCNC(=O)[C@H]([C@@H](C)O)NC(=O)[C@H](CCN)NC(=O)[C@H](CCN)NC(=O)[C@H](CC(C)C)NC(=O)[C@@H](CC(C)C)NC(=O)[C@H](CCN)NC2=O)[C@@H](C)O)NC(=O)[C@H](CCN)NC(=O)[C@H](Cc2ccc(O)cc2)NC1=O)C(C)C [Ex. 16] (I: Ac-V[Orn]Y[Dab]E[dDab][hSer]WS[Tle][dT] / II: [Dab]T[Dap][Dab][Dab][dL]L[Dab][Dab]T; lactam I:2-I:C, II:4-II:C; amide I:5-II:N) | 0.25 (≈ 0.107 µM) | 0.0625 (≈ 0.0268 µM) | 0.25 (≈ 0.107 µM) | 0.25 (≈ 0.107 µM) | 0.0625 (≈ 0.0268 µM) | 0.125 (≈ 0.0536 µM) | 0.0625 (≈ 0.0268 µM) | 0.25 (≈ 0.107 µM) | <1 |
| CC(C)C[C@@H]1NC(=O)[C@@H](CC(C)C)NC(=O)[C@H](CCN)NC(=O)[C@@H](NC(=O)[C@H](CCN)NC(=O)[C@@H](NC(=O)[C@H](CCN)NC(=O)CC[C@@H]2NC(=O)[C@@H](NC(=O)[C@H](Cc3ccc(O)cc3)NC(=O)[C@H](CCN)NC(=O)[C@@H](O)C(C)C)CSSC[C@@H](C(=O)N[C@H](C(=O)N[C@@H](CCC(=O)O)C(=O)N[C@H](CO)[C@@H](C)O)C(C)(C)C)NC(=O)[C@H](Cc3c[nH]c4ccccc34)NC(=O)[C@H]([C@@H](C)O)NC(=O)[C@@H](CCN)NC2=O)[C@@H](C)O)CCNC(=O)[C@H]([C@@H](C)O)NC(=O)[C@H](CCN)NC(=O)[C@H](CCN)NC1=O [Ex. 191] (I: H-[Hiv][Dab]YCE[dDab]TWC[Tle]E[Thr(ol)] / II: [Dab]T[Dab][Dab][Dab][dL]L[Dab][Dab]T; disulfide I:4-I:9; amide I:5-II:N; lactam II:4-II:C) | 0.5 (≈ 0.205 µM) | 0.125 (≈ 0.0512 µM) | 0.5 (≈ 0.205 µM) | 1 (≈ 0.409 µM) | 0.125 (≈ 0.0512 µM) | 2 (≈ 0.819 µM) | 0.25 (≈ 0.102 µM) | 0.25 (≈ 0.102 µM) | 1 |
| CN[C@H](C(=O)N[C@H]1CSSC[C@@H](C(=O)N[C@@H](CO)C(N)=O)NC(=O)[C@H](C(C)C)NC(=O)[C@H](CCO)NC(=O)[C@H](Cc2c[nH]c3ccccc23)NC(=O)[C@H](CCO)NC(=O)[C@@H](CCN)NC(=O)[C@H](CCC(=O)N[C@@H](CCN)C(=O)N[C@H](C(=O)N[C@@H](CCN)C(=O)N[C@H]2CCNC(=O)[C@H]([C@@H](C)O)NC(=O)[C@H](CCN)NC(=O)[C@H](CCN)NC(=O)[C@H](CC(C)C)NC(=O)[C@@H](CC(C)C)NC(=O)[C@H](CCN)NC2=O)[C@@H](C)O)NC(=O)[C@H](CCN)NC(=O)[C@H](Cc2ccc(O)cc2)NC1=O)C(C)C [Ex. 50] (I: H-[NMeV]CY[Dab]E[dDab][hSer]W[hSer]VCS-NH2 / II: [Dab]T[Dab][Dab][Dab][dL]L[Dab][Dab]T; disulfide I:2-I:11; amide I:5-II:N; lactam II:4-II:C) | 1 (≈ 0.414 µM) | 0.25 (≈ 0.104 µM) | 8 (≈ 3.32 µM) | 0.5 (≈ 0.207 µM) | 0.125 (≈ 0.0518 µM) | 4 (≈ 1.66 µM) | 0.125 (≈ 0.0518 µM) | 0.25 (≈ 0.104 µM) | <1 |
| CCCC[C@H](NC(C)=O)C(=O)N[C@H]1CCCNC(=O)[C@@H]([C@H](C)O)NC(=O)[C@H](C(C)(C)C)NC(=O)[C@H](CO)NC(=O)[C@H](Cc2c[nH]c3ccccc23)NC(=O)[C@H](CCO)NC(=O)[C@@H](CCN)NC(=O)[C@H](CCC(=O)N[C@@H](CCN)C(=O)N[C@H](C(=O)N[C@@H](CN)C(=O)N[C@H]2CCNC(=O)[C@H]([C@@H](C)O)NC(=O)[C@H](CCN)NC(=O)[C@H](CCN)NC(=O)[C@H](CC(C)C)NC(=O)[C@@H](CC(C)C)NC(=O)[C@H](CCN)NC2=O)[C@@H](C)O)NC(=O)[C@H](CN)NC(=O)[C@H](Cc2ccc(O)cc2)NC1=O [Ex. 34] (I: Ac-[Nle][Orn]Y[Dap]E[dDab][hSer]WS[Tle][dT] / II: [Dab]T[Dap][Dab][Dab][dL]L[Dab][Dab]T; lactam I:2-I:C, II:4-II:C; amide I:5-II:N) | 0.0625 (≈ 0.0268 µM) | 0.03125 (≈ 0.0134 µM) | 0.125 (≈ 0.0536 µM) | 0.0625 (≈ 0.0268 µM) | 0.0625 (≈ 0.0268 µM) | 0.125 (≈ 0.0536 µM) | 0.125 (≈ 0.0536 µM) | 0.25 (≈ 0.107 µM) | <1 |
